Reference: ChEMBL document CHEMBL6074653, “Reversal of insulin resistance to combat type 2 diabetes mellitus by newer thiazolidinedione's in fructose induced insulin resistant rats” (Eur J Med Chem, 2024)
Calls of active or inactive are those of the source. The calls are words filed in the database; no cut-off is given here.

Columns and labels:
L6 = assay: Induction of glucose uptake in rat L6 cells incubated for 24 hrs by GOD-POD technique; assay type: functional; set-up: concentration or dose not given beside the values
[1] = target: T1, Peroxisome proliferator-activated receptor gamma (Homo sapiens) (UniProt P37231); assay: Agonist activity at PPARgamma in human HepG2 cells assessed as increase in PPARgamma transcription factor expression by ELISA analysis; assay type: cell-based; conditions: filed as agonist, dose 6.25-50 µM
T1 sequence (whole entry): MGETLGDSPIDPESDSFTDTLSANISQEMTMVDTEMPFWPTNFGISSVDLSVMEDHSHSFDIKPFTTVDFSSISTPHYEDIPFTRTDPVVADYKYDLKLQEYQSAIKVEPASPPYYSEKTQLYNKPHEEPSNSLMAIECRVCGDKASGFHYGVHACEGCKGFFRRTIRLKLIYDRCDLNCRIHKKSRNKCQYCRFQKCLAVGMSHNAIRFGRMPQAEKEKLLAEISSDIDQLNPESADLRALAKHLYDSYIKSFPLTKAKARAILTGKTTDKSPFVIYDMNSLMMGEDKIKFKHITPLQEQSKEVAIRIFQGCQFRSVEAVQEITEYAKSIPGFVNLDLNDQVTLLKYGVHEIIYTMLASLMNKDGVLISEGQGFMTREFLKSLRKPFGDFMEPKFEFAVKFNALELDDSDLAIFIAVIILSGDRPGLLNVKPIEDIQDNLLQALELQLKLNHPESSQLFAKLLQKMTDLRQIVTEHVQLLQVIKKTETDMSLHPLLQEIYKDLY

[2] = Cmax in male Wistar rat at 30 mg/kg, po measured upto 24 hrs; assay type: ADME, organism-based; conditions: in vivo
[3] = Tmax in male Wistar rat at 30 mg/kg, po measured upto 24 hrs; assay type: ADME, organism-based; conditions: in vivo
[4] = AUC (0 to t) in male Wistar rat at 30 mg/kg, po measured upto 24 hrs; assay type: ADME, organism-based; conditions: in vivo
[5] = AUC (0 to infinity) in male Wistar rat at 30 mg/kg, po measured upto 24 hrs; assay type: ADME, organism-based; conditions: in vivo
[6] = Half life in male Wistar rat at 30 mg/kg, po measured upto 24 hrs; assay type: ADME, organism-based; conditions: in vivo
[7] = Acute toxicity in male Wistar rat assessed as body weight gain at 10 mg/kg, po administered for 15 days; assay type: organism-based; conditions: in vivo, 360 h, time 15 day
[8] = Acute toxicity in male Wistar rat assessed as change in body weight at 10 mg/kg, po administered for 15 days; assay type: organism-based; conditions: in vivo, 360 h, time 15 day
Rattus norvegicus [9] = assay: Anti-diabetic activity in fructose-treated male Wistar rat assessed as decrease in fasting blood glucose level at 30 mg/kg, po administered for 15 days; assay type: functional, organism-based; conditions: time 15.0 day
Rattus norvegicus [10] = assay: Anti-diabetic activity in fructose-treated male Wistar rat assessed as decrease in insulin level at 30 mg/kg, po administered for 15 days by insulin tolerance test; assay type: functional, organism-based; conditions: time 15.0 day
Rattus norvegicus [11] = assay: Anti-diabetic activity in fructose-treated male Wistar rat assessed as change in HOMO-IR level at 30 mg/kg, po administered for 15 days; assay type: functional, organism-based; conditions: time 15.0 day
Rattus norvegicus [12] = assay: Anti-diabetic activity in fructose-treated male Wistar rat assessed as increase in glycogen content in skeletal muscle at 30 mg/kg, po administered for 15 days; assay type: functional, organism-based; conditions: time 15.0 day
Rattus norvegicus [13] = assay: Anti-diabetic activity in fructose-treated male Wistar rat assessed as increase in glycogen content in liver at 30 mg/kg, po administered for 15 days; assay type: functional, organism-based; conditions: time 15.0 day
Rattus norvegicus [14] = assay: Anti-diabetic activity in Wistar rat Diaphragm assessed as […] at 30 mg/kg, po administered for 15 days; assay type: functional, organism-based; conditions: time 15.0 day
Rattus norvegicus [15] = assay: Anti-diabetic activity in fructose-treated male Wistar rat assessed as decrease in triglycerides level at 30 mg/kg, po administered for 15 days (reference value: 140.03 +/-3.55 mg/dL); assay type: functional; conditions: time 15 day
Rattus norvegicus [16] = assay: Anti-diabetic activity in fructose-treated male Wistar rat assessed as increase in total cholesterol level at 30 mg/kg, po administered for 15 days (reference value: 93.68 +/-1.68 mg/dL); assay type: functional; conditions: time 15 day
Rattus norvegicus [17] = assay: Anti-diabetic activity in fructose-treated male Wistar rat assessed as increase in HDL level at 30 mg/kg, po administered for 15 days (reference value: 25.35 +/-2.03 mg/dL); assay type: functional; conditions: time 15 day
Rattus norvegicus [18] = assay: Anti-diabetic activity in fructose-treated male Wistar rat assessed as decrease in VLDL level at 30 mg/kg, po administered for 15 days (reference value: 28 +/-0.28 mg/dL); assay type: functional; conditions: time 15 day
Rattus norvegicus [19] = assay: Anti-diabetic activity in fructose-treated male Wistar rat assessed as increase in LDL level at 30 mg/kg, po administered for 15 days (reference value: 40.32 +/-1.08 mg/dL); assay type: functional; conditions: time 15 day
Rattus norvegicus [20] = assay: Anti-diabetic activity in fructose-treated male Wistar rat assessed as decrease in SGOT level at 30 mg/kg, po administered for 15 days (reference value: […]); assay type: functional; conditions: time 15 day
Rattus norvegicus [21] = assay: Anti-diabetic activity in fructose-treated male Wistar rat assessed as decrease in SGPT level at 30 mg/kg, po administered for 15 days (reference value: […]); assay type: functional; conditions: time 15 day
Rattus norvegicus [22] = assay: Anti-diabetic activity in fructose-treated male Wistar rat assessed as increase in SOD level in liver at 30 mg/kg, po administered for 15 days (reference value: 13.25 +/-1.35 U/ml); assay type: functional; conditions: time 15 day
Rattus norvegicus [23] = assay: Anti-diabetic activity in fructose-treated male Wistar rat assessed as increase in CAT level in liver at 30 mg/kg, po administered for 15 days (reference value: 27.65 +/-1.02 U/min); assay type: functional; conditions: time 15 day
Rattus norvegicus [24] = assay: Anti-diabetic activity in fructose-treated male Wistar rat assessed as decrease in MDA level in liver at 30 mg/kg, po administered for 15 days (reference value: 294.65 +/-11.78 nM/mg ); assay type: functional; conditions: time 15 day
Rattus norvegicus [25] = assay: Anti-diabetic activity in fructose-treated male Wistar rat assessed as increase in GSH level in liver at 30 mg/kg, po administered for 15 days (reference value: 39.98 +/-0.86 nM/mg ); assay type: functional; conditions: time 15 day
Rattus norvegicus [26] = assay: Anti-diabetic activity in fructose-treated male Wistar rat assessed as sinusoidal congestion in liver 30 mg/kg, po administered for 15 days by H and E staining based analysis; assay type: functional, organism-based; conditions: time 15.0 day
Rattus norvegicus [27] = assay: Anti-diabetic activity in fructose-treated male Wistar rat assessed as ballooning degeneration in liver 30 mg/kg, po administered for 15 days by H and E staining based analysis; assay type: functional, organism-based; conditions: time 15.0 day
Rattus norvegicus [28] = assay: Anti-diabetic activity in fructose-treated male Wistar rat assessed as steatosis in liver 30 mg/kg, po administered for 15 days by H and E staining based analysis; assay type: functional, organism-based; conditions: time 15.0 day
Rattus norvegicus [29] = assay: Anti-diabetic activity in fructose-treated male Wistar rat assessed as kupffer cell hyperplasia in liver 30 mg/kg, po administered for 15 days by H and E staining based analysis; assay type: functional, organism-based; conditions: time 15.0 day
Rattus norvegicus [30] = assay: Anti-diabetic activity in fructose-treated male Wistar rat assessed as lymphocyte infiltration in liver 30 mg/kg, po administered for 15 days by H and E staining based analysis; assay type: functional, organism-based; conditions: time 15.0 day
Rattus norvegicus [31] = assay: Anti-diabetic activity in fructose-treated male Wistar rat assessed as decrease in adipocyte count 30 mg/kg, po administered for 15 days by H and E staining based analysis; assay type: functional, organism-based; conditions: time 15.0 day
[32] = Retention time of the compound by HPLC analysis; assay type: physicochemical
[33] = Drug recovery in rat plasma at 50 mg/kg, po by HPLC analysis; assay type: ADME, organism-based; conditions: in vivo
[34] = Drug recovery in rat plasma at 100 mg/kg, po by HPLC analysis; assay type: ADME, organism-based; conditions: in vivo
[35] = Drug recovery in rat plasma at 150 mg/kg, po by HPLC analysis; assay type: ADME, organism-based; conditions: in vivo
[36] = target: T1, Peroxisome proliferator-activated receptor gamma (Homo sapiens); assay: Agonist activity at Gal4-fused human PPARgamma transfected in African green monkey CV-1 cells assessed as receptor transactivation incubated for 24 hrs by luciferase based assay relative to control; assay type: cell-based
Rattus norvegicus [37] = assay: Anti-diabetic activity in fructose-treated male Wistar rat assessed as increase in HOMO-IR level at 30 mg/kg, po administered for 15 days; assay type: functional, organism-based; conditions: time 15.0 day

In the case of `Cc1ccc(/C=C2\SC(=O)N(CC(=O)N3CCC[C@@H]3C#N)C2=O)cc1`, the Activity (L6) is reported as 64.57%.
With `COc1cc(/C=C2\SC(=O)N(CC(=O)N3CCC[C@@H]3C#N)C2=O)cc(OC)c1OC` the Activity (L6) was 69.74%.
`COc1ccc(/C=C2\SC(=O)N(CC(=O)N3CCC[C@@H]3C#N)C2=O)cc1OC` showed an Activity (L6) of 64.56%.
For `N#C[C@H]1CCCN1C(=O)CN1C(=O)S/C(=C\c2ccc(O)cc2)C1=O`, the Activity (L6) was 79.29%, the Activity [1] was “Dose-dependent-effect” and the Cmax [2] was 1030 ng/mL. It also gave a Tmax [3] of 2.21 h, an AUC(0-t) at 24 h [4] of 5980 ng·h/mL and an AUC(0-inf) [5] of 6620 ng·h/mL. The half-life [6] was 4.21 h, the Activity [7] was “Non-toxic” and the Activity [8] was “Non-toxic”. For the same molecule, the Activity (Rattus norvegicus [9]) was “Active”, the Activity (Rattus norvegicus [10]) was “Active” and the Activity (Rattus norvegicus [11]) was “Active”. The Activity (Rattus norvegicus [12]) was “Active”, the Activity (Rattus norvegicus [13]) was “Active” and the Activity (Rattus norvegicus [14]) was “Active”. For the same molecule, the Activity (Rattus norvegicus [15]) was 76.18 mg/dL, the Activity (Rattus norvegicus [16]) was 114.79 mg/dL and the Activity (Rattus norvegicus [17]) was 53.25 mg/dL. The Activity (Rattus norvegicus [18]) was 15.23 mg/dL, the Activity (Rattus norvegicus [19]) was 47.8 mg/dL and the Activity (Rattus norvegicus [20]) was 41.32 U/L. The Activity (Rattus norvegicus [21]) was 37.12 U/L, the Activity (Rattus norvegicus [22]) was 24.68 U/ml and the Activity (Rattus norvegicus [23]) was 52.36 U/min. For the same molecule, the Activity (Rattus norvegicus [24]) was 197.32 nM/mg, the Activity (Rattus norvegicus [25]) was 61.35 nM/mg and the Activity (Rattus norvegicus [26]) was “Active”. For the same molecule, the Activity (Rattus norvegicus [27]) was “Active”, the Activity (Rattus norvegicus [28]) was “Active” and the Activity (Rattus norvegicus [29]) was “Active”. For the same molecule, the Activity (Rattus norvegicus [30]) was “Active”, the Activity (Rattus norvegicus [31]) was “Active” and the Retention_time [32] was 4.4 min. It also gave a Drug recovery [33] of 97.1%, a Drug recovery [34] of 101% and a Drug recovery [35] of 96.1%.
For `O=C1NC(=O)C(Cc2ccc(OCc3cccc(Br)c3)cc2)S1` (stereo unspecified), the Activity [36] was 21.2%.
In the case of `N#C[C@H]1CCCN1C(=O)CN1C(=O)S/C(=C\c2ccco2)C1=O`, the Activity (L6) is reported as 57.4%.
For `N#C[C@H]1CCCN1C(=O)CN1C(=O)S/C(=C\c2ccc(F)cc2)C1=O`, the Activity (L6) was 74.58%, the Activity [1] was “Dose-dependent-effect” and the Cmax [2] was 926 ng/mL. It also gave a Tmax [3] of 2 h, an AUC(0-t) at 24 h [4] of 5620 ng·h/mL and an AUC(0-inf) [5] of 6240 ng·h/mL. For the same molecule, the half-life [6] was 3.96 h, the Activity [7] was “Non-toxic” and the Activity [8] was “Non-toxic”. For the same molecule, the Activity (Rattus norvegicus [9]) was “Active”, the Activity (Rattus norvegicus [10]) was “Active” and the Activity (Rattus norvegicus [37]) was “Active”. The Activity (Rattus norvegicus [12]) was “Active”, the Activity (Rattus norvegicus [13]) was “Active” and the Activity (Rattus norvegicus [14]) was “Active”. For the same molecule, the Activity (Rattus norvegicus [15]) was 86.15 mg/dL, the Activity (Rattus norvegicus [16]) was 112.3 mg/dL and the Activity (Rattus norvegicus [17]) was 51.39 mg/dL. It also gave an Activity (Rattus norvegicus [18]) of 17.23 mg/dL, an Activity (Rattus norvegicus [19]) of 42.74 mg/dL and an Activity (Rattus norvegicus [20]) of 46.36 U/L. The Activity (Rattus norvegicus [21]) was 39.72 U/L, the Activity (Rattus norvegicus [22]) was 20.36 U/ml and the Activity (Rattus norvegicus [23]) was 48.65 U/min. The Activity (Rattus norvegicus [24]) was 224.65 nM/mg, the Activity (Rattus norvegicus [25]) was 58.63 nM/mg and the Activity (Rattus norvegicus [26]) was “Active”. For the same molecule, the Activity (Rattus norvegicus [27]) was “Active”, the Activity (Rattus norvegicus [28]) was “Active” and the Activity (Rattus norvegicus [29]) was “Active”. For the same molecule, the Activity (Rattus norvegicus [30]) was “Active”, the Activity (Rattus norvegicus [31]) was “Active” and the Retention_time [32] was 6.7 min. It also gave a Drug recovery [33] of 99.96%, a Drug recovery [34] of 99.58% and a Drug recovery [35] of 98.36%.
`N#C[C@H]1CCCN1C(=O)CN1C(=O)S/C(=C\c2ccccc2)C1=O` gave an Activity (L6) of 63.23%.
With `COc1ccc(/C=C2\SC(=O)N(CC(=O)N3CCC[C@@H]3C#N)C2=O)cc1` the Activity (L6) was 58.66%.
Molecule `N#C[C@H]1CCCN1C(=O)CN1C(=O)S/C(=C\c2ccccc2O)C1=O` has an Activity (L6) of 72.86%.
Molecule `CN(C)c1ccc(/C=C2\SC(=O)N(CC(=O)N3CCC[C@@H]3C#N)C2=O)cc1` has an Activity (L6) of 64.18%.
